Key:
Format in all cases: in vivo
[1] = system: crabgrass; assay: Test Example 6: soil-surface granule pot test, herbicidal activity; settings: flumioxazin 25 g/ha; granules on soil surface; 14 days after application
Description: (§1) Plastic pots each having a diameter of 21 cm and a height of 20 cm were filled with upland soil, and then planted with potato and seeded with barnyardgrass, crabgrass and ivyleaf morningglory. Next day, on the surface of the soil of the above-mentioned plastic pots, Flumioxazin granules (granules containing 0.25% of flumioxazin, commercial name: Broad Star, produced by Valent U.S.A.), granules containing 0.9% of Compound [I] (prepared according to Formulation example 9), and a mixture of the Flumioxazin granules with the granules containing Compound [I] were applied with hand in a designated amount given by Table 6.
(§2) The herbicidal activity and phytotoxicity against the vegetable were examined 14 days after the application.

[2] = system: barnyardgrass; assay: as above; settings: flumioxazin 25 g/ha; granules on soil surface; 14 days after application
Description: as §1, §2

[3] = system: ivyleaf morningglory; assay: as above; settings: flumioxazin 25 g/ha; granules on soil surface; 14 days after application
Description: as §1, §2

[4] = system: barnyardgrass; assay: Test Example 1: soil-surface granule pot test, herbicidal activity; settings: flumioxazin 40 g/ha; granules on soil surface; 48 days after application
Description: (§3) Plastic pots each having a diameter of 18 cm and a height of 14 cm were filled with upland soil, and then seeded with wheat and barnyardgrass. On the surface of the soil of the above-mentioned plastic pots, Flumioxazin granules (granules containing 0.25% of flumioxazin, commercial name: Broad Star, produced by Valent U.S.A.), granules containing Compound [I] (prepared by using one part of Compound [I], 0.5 part of Neocol YSK, 2 parts of Toxanon GR31A, 30 parts of Kunigel VI and 66.5 parts of calcium carbonate according to Formulation example 9), and a mixture of the Flumioxazin granules with the granules containing Compound [I] were applied with hand in a designated amount given by Table 1.
(§4) The treated plants were grown in the greenhouse. The herbicidal activity and phytotoxicity against the crop were examined 48 days after the application.

[5] = system: wheat; assay: Test Example 1: soil-surface granule pot test, phytotoxicity against crop; settings: flumioxazin 40 g/ha; granules on soil surface; 48 days after application
Description: as §3, §4

[6] = system: potato; assay: Test Example 6: soil-surface granule pot test, phytotoxicity against vegetable; settings: flumioxazin 25 g/ha; granules on soil surface; 14 days after application
Description: as §1, §2

[7] = system: yellow nutsedge; assay: Test Example 3: soil-surface spray pot test, herbicidal activity; parameters: key: 0: there is no or little difference in the degree of growth between treated plants and untreated plants at the time of observation; 7: show excellent herbicidal activity; 8: show excellent herbicidal activity; 9: show excellent herbicidal activity; 10: the test plants die completely or their growth is completely inhibited; settings: 21 days after application
Description: Plastic pots each having a width of 32 cm, a depth of 22 cm and a height of 8 cm were filled with upland soil, and then planted with a tuber of yellow nutsedge. Next day, Flumioxazin WDG (water dispersible granules containing 51% of flumioxazin, commercial name: Valor SX, produced by Valent U.S.A.), emulsifiable concentrate containing Compound [I] (prepared by dissolving Compound [I] with acetone containing Tween 20 (surfactant, sorbitan monolaurate polyglycol ether)) and a mixture thereof was diluted with a designated amount of water, and applied uniformly on the surface of the soil with a small sprayer.
The treated plants were grown in the greenhouse. The herbicidal activity and phytotoxicity against the crop were examined 21 days after the application.

C#CCN1C(=O)COc2cc(F)c(N3C(=O)C4=C(CCCC4)C3=O)cc21 [flumioxazin, N-(7-fluoro-3,4-dihydro-3-oxo-4-prop-2-ynyl-2H-1,4-benzoxadin-6-yl)cyclohex-1-ene-1,2-dicarboxamide]
Herbicidal activity Crabgrass [1]: 5 | Herbicidal activity Barnyardgrass [2]: 1 | Herbicidal activity Ivyleaf morningglory [3]: 1 | Herbicidal activity Barnyardgrass [4]: 4 | Phytotoxicity against crop Wheat [5]: No damage | Phytotoxicity against vegetable Potato [6]: No damage | Herbicidal activity Yellow nutsedge ([7]; flumioxazin 25 g/ha): 0 | Herbicidal activity Yellow nutsedge ([7]; flumioxazin 50 g/ha): 1

Source: patent US7598207B2, “Herbicidal composition” (Sumitomo Chemical Company, Limited, priority 2006, dated 2009)
